Some results are limits rather than exact numbers.

The species entered for assay [1] is Homo sapiens. Nature of the assay: Functional selectivity was assessed in a neutrophil chemotaxis assay using N-formyl-methionyl-leucyl-phenylalanine (FMLP). It counts as organism-based.
For assay [2], the target named is T1, Endothelin receptor type B (Homo sapiens) (UniProt P24530).
T1 sequence (whole entry): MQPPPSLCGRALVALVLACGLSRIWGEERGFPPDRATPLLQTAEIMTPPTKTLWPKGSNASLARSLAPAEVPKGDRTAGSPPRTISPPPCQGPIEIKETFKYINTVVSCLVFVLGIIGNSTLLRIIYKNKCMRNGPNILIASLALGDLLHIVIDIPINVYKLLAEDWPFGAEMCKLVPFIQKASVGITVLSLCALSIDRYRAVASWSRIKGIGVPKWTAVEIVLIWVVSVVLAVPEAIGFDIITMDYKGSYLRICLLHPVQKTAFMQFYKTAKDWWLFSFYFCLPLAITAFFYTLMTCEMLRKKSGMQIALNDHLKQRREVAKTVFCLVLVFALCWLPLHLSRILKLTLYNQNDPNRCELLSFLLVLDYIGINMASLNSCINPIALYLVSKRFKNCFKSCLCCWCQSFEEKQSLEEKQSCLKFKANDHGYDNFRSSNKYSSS
Nature of the assay: Displacement of [125I]endothelin from CHO cell membrane expressing human Endothelin B receptor. It is filed as cell membranes. Also on record: concentration or dose not given beside the values. The note with it: concentration not given here.

Assay [3] is filed under the species Homo sapiens. Nature of the assay: Ability to block GRO-alpha driven human neutrophil chemotaxis. It counts as functional, organism-based.
Assay [4] deals with T2, Gastrin/cholecystokinin type B receptor (Homo sapiens) (UniProt P32239).
T2 sequence (whole entry): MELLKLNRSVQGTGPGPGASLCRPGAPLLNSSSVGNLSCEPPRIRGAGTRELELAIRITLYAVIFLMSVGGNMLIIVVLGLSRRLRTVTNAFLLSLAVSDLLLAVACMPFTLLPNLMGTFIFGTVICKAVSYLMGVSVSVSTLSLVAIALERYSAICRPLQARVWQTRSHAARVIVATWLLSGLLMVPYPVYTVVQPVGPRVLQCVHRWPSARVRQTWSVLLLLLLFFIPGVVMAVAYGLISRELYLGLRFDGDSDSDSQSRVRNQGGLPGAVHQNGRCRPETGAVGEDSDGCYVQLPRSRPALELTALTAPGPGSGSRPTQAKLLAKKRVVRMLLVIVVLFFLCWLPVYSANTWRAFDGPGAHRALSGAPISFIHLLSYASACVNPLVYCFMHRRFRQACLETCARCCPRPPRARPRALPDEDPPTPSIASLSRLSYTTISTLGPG
Nature of the assay: Displacement of [3H]CCK-8 from NIH3T3 (mouse embryo cell membrane ) expressing human cholecystokinin CCKB receptor. Also on record: concentration or dose not given beside the values. The following applies: concentration not given here. It is filed as cell membranes. In general terms: In a radioligand displacement assay an active substance lowers the binding of a labelled ligand.

Assay [5] addresses Somatostatin receptor (Mus musculus) (UniProt P30935+O08858+P30875+P30873+P49660). Nature of the assay: Displacement of [125I]-TYR somatostatin from At-T-20 (mouse pituitary) cell membrane expressing somatostatin receptor. The following applies: Pituitary gland cell; concentration not given here. It is filed as cell membranes.
For assay [6], the target named is T3, C-X-C chemokine receptor type 2 (Homo sapiens) (UniProt P25025).
T3 sequence (whole entry): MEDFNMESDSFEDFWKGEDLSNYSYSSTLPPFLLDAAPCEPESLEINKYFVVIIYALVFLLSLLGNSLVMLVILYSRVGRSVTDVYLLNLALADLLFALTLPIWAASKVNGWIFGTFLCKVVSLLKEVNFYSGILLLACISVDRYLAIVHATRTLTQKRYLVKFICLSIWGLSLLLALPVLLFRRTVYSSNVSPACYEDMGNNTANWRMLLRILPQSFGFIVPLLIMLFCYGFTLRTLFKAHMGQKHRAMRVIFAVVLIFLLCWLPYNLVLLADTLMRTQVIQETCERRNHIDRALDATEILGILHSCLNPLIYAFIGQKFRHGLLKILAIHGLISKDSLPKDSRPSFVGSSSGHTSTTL
Nature of the assay: Displacement of [125I]IL-8 from CHO cell membrane expressing human CXCR2 receptor at a concentration of 20 uM. It is filed as cell membranes.

In assay [7] the target is T4, Neuropeptide Y receptor type 1 (Homo sapiens) (UniProt P25929).
T4 sequence (whole entry): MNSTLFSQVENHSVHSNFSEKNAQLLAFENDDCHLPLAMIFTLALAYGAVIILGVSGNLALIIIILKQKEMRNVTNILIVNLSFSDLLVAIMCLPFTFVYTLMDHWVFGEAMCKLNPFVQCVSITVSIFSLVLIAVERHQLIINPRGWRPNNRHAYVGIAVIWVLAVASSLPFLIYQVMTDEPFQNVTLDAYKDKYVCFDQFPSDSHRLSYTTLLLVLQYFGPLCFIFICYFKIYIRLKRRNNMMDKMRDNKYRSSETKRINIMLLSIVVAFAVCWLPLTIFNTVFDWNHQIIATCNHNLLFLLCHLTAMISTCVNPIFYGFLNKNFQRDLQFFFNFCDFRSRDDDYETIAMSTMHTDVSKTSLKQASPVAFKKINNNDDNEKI
Description: Displacement of [125I]-peptide YY (PYY) from SK-N-MC (human neuroblastoma) cell membrane expressing human Neuropeptide Y receptor type 1. The arrangement: concentration or dose not given beside the values. The note with it: concentration not given here.

In assay [8] the target is T5, C-X-C chemokine receptor type 1 (Homo sapiens) (UniProt P25024).
T5 sequence (whole entry): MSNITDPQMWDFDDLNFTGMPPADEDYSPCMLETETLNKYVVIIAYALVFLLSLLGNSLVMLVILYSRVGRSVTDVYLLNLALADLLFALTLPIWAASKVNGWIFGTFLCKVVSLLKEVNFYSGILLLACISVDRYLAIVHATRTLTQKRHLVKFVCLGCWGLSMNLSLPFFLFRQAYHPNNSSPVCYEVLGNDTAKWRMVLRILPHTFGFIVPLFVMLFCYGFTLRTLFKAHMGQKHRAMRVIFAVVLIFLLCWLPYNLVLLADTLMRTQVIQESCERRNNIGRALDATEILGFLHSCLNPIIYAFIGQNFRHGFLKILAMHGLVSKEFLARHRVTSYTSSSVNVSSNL
Description: Displacement of [125I]IL-8 from CHO cell membrane expressing human CXCR1 receptor at a concentration of 20 uM. It counts as cell membranes.

For assay [9], the target named is T6, C-X-C chemokine receptor type 2 (Homo sapiens, UniProt P25025).
T6 sequence (P25025 whole entry): T3 sequence (whole entry)
Description: Evaluated using an SPA assay with recombinant human [125I]IL-8 and membranes prepared from Sf9 cells expressing human CXCR2.

For assay [10], the target named is T6, C-X-C chemokine receptor type 2. Description: Compound binding was evaluated using an SPA assay with recombinant human [125I]IL-8 and membranes prepared from Sf9 cells expressing human C-X-C chemokine receptor type 2. It counts as cell membranes.
The target of assay [11] is T7, Calcitonin receptor (Homo sapiens) (UniProt P30988).
T7 sequence (whole entry): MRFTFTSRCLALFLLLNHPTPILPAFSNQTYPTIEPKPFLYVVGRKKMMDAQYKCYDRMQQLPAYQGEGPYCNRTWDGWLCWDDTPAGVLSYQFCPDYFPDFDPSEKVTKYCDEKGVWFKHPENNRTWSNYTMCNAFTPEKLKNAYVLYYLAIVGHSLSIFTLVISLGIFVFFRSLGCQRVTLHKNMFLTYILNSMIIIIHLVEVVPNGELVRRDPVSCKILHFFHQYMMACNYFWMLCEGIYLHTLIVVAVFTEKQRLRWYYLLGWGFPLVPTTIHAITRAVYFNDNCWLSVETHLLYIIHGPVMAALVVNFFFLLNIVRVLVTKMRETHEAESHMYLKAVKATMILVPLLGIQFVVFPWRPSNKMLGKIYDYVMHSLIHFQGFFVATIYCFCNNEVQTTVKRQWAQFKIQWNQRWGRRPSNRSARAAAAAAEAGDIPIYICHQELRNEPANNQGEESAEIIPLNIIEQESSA
Description: Displacement of [125I]calcitonin from T-47D (human breast cancer) cell membrane expressing human calcitonin receptor. It counts as cell membranes. The following applies: T47D; concentration not given here.

Sequence of Somatostatin receptor (Mus musculus) (P30935 whole entry): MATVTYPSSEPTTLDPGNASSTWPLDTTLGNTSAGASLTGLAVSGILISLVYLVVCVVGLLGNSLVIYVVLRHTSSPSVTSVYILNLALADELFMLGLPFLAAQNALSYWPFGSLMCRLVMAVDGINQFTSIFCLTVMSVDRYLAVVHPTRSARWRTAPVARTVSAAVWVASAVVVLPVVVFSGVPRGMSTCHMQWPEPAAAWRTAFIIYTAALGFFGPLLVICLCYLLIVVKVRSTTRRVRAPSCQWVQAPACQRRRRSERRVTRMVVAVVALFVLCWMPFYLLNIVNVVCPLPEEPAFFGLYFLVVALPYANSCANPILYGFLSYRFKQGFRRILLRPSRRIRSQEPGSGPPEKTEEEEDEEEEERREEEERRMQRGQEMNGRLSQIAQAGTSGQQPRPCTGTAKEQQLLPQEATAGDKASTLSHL
Sequence of Somatostatin receptor (Mus musculus) (O08858 whole entry): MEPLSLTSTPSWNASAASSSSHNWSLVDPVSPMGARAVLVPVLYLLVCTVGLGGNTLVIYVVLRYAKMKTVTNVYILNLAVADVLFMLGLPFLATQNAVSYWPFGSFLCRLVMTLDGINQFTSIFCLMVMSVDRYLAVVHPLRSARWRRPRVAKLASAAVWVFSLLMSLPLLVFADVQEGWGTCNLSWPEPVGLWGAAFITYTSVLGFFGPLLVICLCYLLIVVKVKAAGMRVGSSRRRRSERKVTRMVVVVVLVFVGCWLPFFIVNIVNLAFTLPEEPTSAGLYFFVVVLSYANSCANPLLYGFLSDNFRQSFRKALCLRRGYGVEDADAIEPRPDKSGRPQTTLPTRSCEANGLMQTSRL
Sequence of Somatostatin receptor (Mus musculus) (P30875 whole entry): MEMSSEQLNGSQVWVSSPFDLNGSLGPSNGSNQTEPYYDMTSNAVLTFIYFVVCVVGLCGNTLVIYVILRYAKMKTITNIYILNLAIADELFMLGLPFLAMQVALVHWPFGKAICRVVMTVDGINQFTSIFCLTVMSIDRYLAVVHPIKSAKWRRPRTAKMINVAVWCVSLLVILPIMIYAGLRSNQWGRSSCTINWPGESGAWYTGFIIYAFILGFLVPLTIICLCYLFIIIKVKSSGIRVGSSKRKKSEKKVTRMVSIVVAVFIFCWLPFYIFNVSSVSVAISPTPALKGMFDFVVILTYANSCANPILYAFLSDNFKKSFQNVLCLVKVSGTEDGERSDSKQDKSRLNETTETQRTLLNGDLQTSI
Sequence of Somatostatin receptor (Mus musculus) (P30873 whole entry): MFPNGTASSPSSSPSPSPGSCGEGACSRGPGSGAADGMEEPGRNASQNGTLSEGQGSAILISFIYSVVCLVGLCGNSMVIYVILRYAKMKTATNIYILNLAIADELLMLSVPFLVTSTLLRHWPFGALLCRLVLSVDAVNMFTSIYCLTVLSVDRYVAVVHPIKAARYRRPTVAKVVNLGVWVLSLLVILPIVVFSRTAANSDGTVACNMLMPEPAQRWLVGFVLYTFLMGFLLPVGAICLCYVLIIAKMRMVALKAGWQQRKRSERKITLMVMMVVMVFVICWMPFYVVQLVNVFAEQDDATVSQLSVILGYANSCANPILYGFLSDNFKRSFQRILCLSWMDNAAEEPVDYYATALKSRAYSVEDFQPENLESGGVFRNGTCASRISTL
Sequence of Somatostatin receptor (Mus musculus) (P49660 with tags, fused parts or gaps): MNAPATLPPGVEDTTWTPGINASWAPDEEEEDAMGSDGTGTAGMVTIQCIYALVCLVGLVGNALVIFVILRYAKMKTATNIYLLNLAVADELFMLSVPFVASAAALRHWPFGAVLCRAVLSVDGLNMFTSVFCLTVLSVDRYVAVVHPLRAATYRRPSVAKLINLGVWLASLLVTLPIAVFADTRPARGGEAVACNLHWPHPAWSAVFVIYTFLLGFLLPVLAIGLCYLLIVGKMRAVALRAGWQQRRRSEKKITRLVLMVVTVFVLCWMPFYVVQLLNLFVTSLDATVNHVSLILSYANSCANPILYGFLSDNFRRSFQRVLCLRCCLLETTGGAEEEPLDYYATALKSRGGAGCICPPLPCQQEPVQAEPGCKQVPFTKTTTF

With `O=C(Nc1ccc(F)cc1)c1ccc(S(=O)(=O)Cc2ccccc2)[n+]([O-])c1`, the values for the half-maximal inhibitory concentration (IC50) (in the assay listed under Homo sapiens [1]; in the assay listed under Homo sapiens [3]; in assay [9]) were 13 µM, 1 µM and 0.28 µM, respectively. Besides, the inhibition (usually the change of the read-out against control, counted positive when it falls) in [2] worked out at 8%; in assay [4] it was 29%; in [5] it was 38%; in [6], 77%; in [7] it was 32%; in assay [8] it was 9%.
As for `COc1ccc(NC(=O)c2ccc(Cl)[n+]([O-])c2)cc1`, the IC50 (in the assay listed under Homo sapiens [3]; in [9]) was over 20 µM each time.
As for `CCN(CC)CCCCNc1nc2cc(Cl)c(Cl)cc2nc1-c1ccc(-c2cccs2)s1`, the IC50 (commonly the midpoint of a concentration-inhibition curve) is 0.11 µM in [10] and 0.17 µM in the assay listed under Homo sapiens [3].
In the case of `CS(=O)(=O)c1ccc(C(=O)Nc2ccc(F)cc2)c[n+]1[O-]`, the IC50 is 9.6 µM in the assay listed under Homo sapiens [1], 2 µM in the assay listed under Homo sapiens [3] and 0.13 µM in [9]. Also, the inhibition in [2] was determined as 8%; in assay [4], 40%; in assay [5] it was 60%; in assay [6], 97%; in assay [7], 58%; in assay [8] it was 73%.
As to `O=C(Nc1ccc(F)cc1)c1ccc(S(=O)(=O)c2ccccc2)[n+]([O-])c1`, the IC50 was over 20 µM in the assay listed under Homo sapiens [3] and 0.09 µM in assay [9].
The like results for `O=C(NCc1ccc(F)cc1)c1ccc(Cl)[n+]([O-])c1` were, in that order, over 20 µM and over 20 µM.
Take `O=C(Nc1ccc(F)cc1)c1ccc(S(=O)(=O)C2CCCC2)[n+]([O-])c1`: the inhibition is -2% in assay [2]; 1% in assay [4]; 60% in [6]; 4% in [11]; -1% in assay [7]; 8% in assay [8]. For the same molecule, the figures for the IC50 (in the assay listed under Homo sapiens [3]; in assay [9]) were 1.9 µM and 0.46 µM, respectively.
Consider `O=C(O)c1cccc(S(=O)(=O)c2ccc(C(=O)Nc3ccc(F)cc3)c[n+]2[O-])c1`, for which the IC50 in the assay listed under Homo sapiens [3] was over 20 µM; in assay [9], 0.032 µM.
In the same order, the values of `CC(C)S(=O)(=O)c1ccc(C(=O)Nc2ccc(F)cc2)c[n+]1[O-]` are 2 µM and 0.4 µM.
The like results for `O=C(NC(c1ccccc1)c1ccccc1)c1ccc(Cl)[n+]([O-])c1` were, in that order, 0.83 µM and over 20 µM.
The like results for `O=C(Nc1ccc(I)cc1)c1ccc(Cl)[n+]([O-])c1` were, in that order, 0.5 µM and over 20 µM.
Regarding `O=C(Nc1ccc(F)cc1)c1ccc(Cl)[n+]([O-])c1`, the IC50 in the assay listed under Homo sapiens [1] is over 40 µM; in the assay listed under Homo sapiens [3] it was 1.1 µM; in assay [9] it was 1 µM. Also, the inhibition in [2] is 14%; in assay [4] it was 11%; in assay [5], -2%; in assay [6], 85%; in assay [11], -1%; in [7], 15%. In addition, the inhibition in assay [8] stood at 68%.
As to `O=C(NC1CCCCC1)c1ccc(Cl)[n+]([O-])c1`, the IC50 (in the assay filed under Homo sapiens [3]; in [9]) was over 20 µM in each case.
Molecule `N#Cc1ccc(NC(=O)Nc2ccccc2Br)c2nn[nH]c12` displayed an IC50 in the assay listed under Homo sapiens [3] of 0.01 µM.
For `CCS(=O)(=O)c1ccc(C(=O)Nc2ccc(F)cc2)c[n+]1[O-]`, the IC50 came to 13.3 µM in the assay listed under Homo sapiens [1], 3.3 µM in the assay filed under Homo sapiens [3] and 0.13 µM in assay [9]. Also, the inhibition stood at 15% in assay [2]; 14% in assay [4]; 97% in [6]; 3% in [11]; 41% in [7]; 8% in assay [8].
In the case of `O=C(Nc1ccccc1O)c1ccc(Cl)[n+]([O-])c1`, the half-inhibitory concentration (IC50) is 4.2 µM in the assay listed under Homo sapiens [3] and over 20 µM in assay [9].
The like results for `CC(C)(C)c1ccc(NC(=O)c2ccc(Cl)[n+]([O-])c2)cc1` were, in that order, 1.3 µM and over 20 µM.

For the origin of these results see ChEMBL document CHEMBL1133879, “Nicotinamide N-oxides as CXCR2 antagonists” (Bioorg Med Chem Lett, 2001).
